In patent publication US10294202B2, “Pyrrolidinones as herbicides” (FMC Corporation, priority 2013, dated 2019):

Experiments:
barnyardgrass [1] = test: Test A pre-/postemergence herbicide test; type: in vivo, Echinochloa crus-galli
Summary of the method: (§1)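 Greenhouse pot test with pre- and postemergence application of surfactant-containing solvent formulations. Postemergence plants were 2–10 cm, one- to two-leaf stage. Response scored visually after ~10 days, 0 (no effect) to 100 (complete control).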

pigweed = test: Test A pre-/postemergence herbicide test; type: in vivo, Amaranthus retroflexus
Summary of the method: as §1

corn [2] = test: Test A pre-/postemergence herbicide test; type: in vivo, Zea mays; conditions: Postemergence
Summary of the method: as §1

rice = test: Test B flooded paddy test; type: in vivo, Oryza sativa; conditions: 500 g ai/ha, Flood; scale of 0 to 100 where 0 is no effect and 100 is complete control
Summary of the method: (§2)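 Plants grown to 2-leaf stage; pots flooded 3 cm above soil and compound applied directly into paddy water, depth held throughout. Visual rating against untreated controls after 13 to 15 days in greenhouse, 0 (no effect) to 100 (complete control).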

ducksalad = test: Test B flooded paddy test; type: in vivo, Heteranthera limosa; conditions: 500 g ai/ha, Flood; scale of 0 to 100 where 0 is no effect and 100 is complete control
Summary of the method: as §2

barnyardgrass [3] = test: Test B flooded paddy test; type: in vivo, Echinochloa crus-galli; conditions: 500 g ai/ha, Flood; scale of 0 to 100 where 0 is no effect and 100 is complete control
Summary of the method: as §2

corn [4] = test: Test C pre-/postemergence herbicide test; type: in vivo, Zea mays
Summary of the method: (§3)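 Greenhouse pots; formulation = non-phytotoxic solvent mix + surfactant. PRE onto seeds in loam:sand; POST at 1–4 leaves (2–18 cm) in peat moss/vermiculite medium. Read-out: visual % control vs untreated, day 13–15.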

foxtail, giant = test: Test C pre-/postemergence herbicide test; type: in vivo, Setaria faberii
Summary of the method: as §3

nutsedge, yellow = test: Test C pre-/postemergence herbicide test; type: in vivo, Cyperus esculentus
Summary of the method: as §3

soybean = test: Test C pre-/postemergence herbicide test; type: in vivo, Glycine max
Summary of the method: as §3

barnyardgrass [5] = test: Test C pre-/postemergence herbicide test; type: in vivo, Echinochloa crus-galli
Summary of the method: as §3

oilseed rape = test: Test C pre-/postemergence herbicide test; type: in vivo, Brassica napus
Summary of the method: as §3

[6] = Postemergence, 125 g ai/ha, visual rating on 0 to 100 scale (0 no effect, 100 complete control), approx. 10 days
[7] = Postemergence, 500 g ai/ha, 0 to 100 scale (0 no effect, 100 complete control)
[8] = Preemergence, 125 g ai/ha, 0 to 100 scale where 0 is no effect and 100 is complete control
[9] = Preemergence, 500 g ai/ha, visual rating on 0 to 100 scale (0 no effect, 100 complete control)
[10] = Postemergence, 31 g ai/ha, scale 0 to 100 (0 no effect, 100 complete control)
[11] = Postemergence, 62 g ai/ha, scale 0 (no effect) to 100 (complete control)
[12] = Postemergence, 125 g ai/ha, scale 0 to 100 (0 no effect, 100 complete control)
[13] = Postemergence, 250 g ai/ha, scale 0 to 100 (0 no effect, 100 complete control)
[14] = Preemergence, 31 g ai/ha, scale 0 to 100, 0 is no effect and 100 is complete control
[15] = Preemergence, 62 g ai/ha, scale 0 to 100 (0 no effect, 100 complete control)
[16] = Preemergence, 125 g ai/ha, scale 0 to 100 (0 no effect, 100 complete control)

CN1CC(c2ccc(F)c(F)c2)C(C(=O)Nc2ccccc2F)C1=O (stereo not shown) [Compound 302]
100: Plant response rating, Foxtail, Giant (foxtail, giant; [16]) | Plant response rating (scale of 0 to 100), Foxtail, Giant (foxtail, giant; Preemergence, 250 g ai/ha) | Plant response rating, Barnyardgrass (barnyardgrass [5]; [16]) | Plant response rating (scale of 0 to 100; 0 is no effect, 100 is complete control), Barnyardgrass (barnyardgrass [5]; Preemergence, 250 g ai/ha)
10: Plant response rating, Pigweed (pigweed; [7]) | Plant response rating, Pigweed (pigweed; [8]) | Plant response rating (scale of 0 to 100), Nutsedge, Yellow (nutsedge, yellow; Preemergence, 250 g ai/ha) | Plant response rating (scale of 0 to 100), Oilseed Rape (oilseed rape; Preemergence, 250 g ai/ha)
80: Plant response rating, Barnyardgrass (barnyardgrass [3]) | Plant response rating, Foxtail, Giant (foxtail, giant; [12]) | Plant response rating, Foxtail, Giant (foxtail, giant; [13])
50: Plant response rating (scale of 0 to 100), Corn (corn [4]; Preemergence, 250 g ai/ha)
60: Pigweed plant response rating (pigweed; [9])
20: Plant response rating, Nutsedge, Yellow (nutsedge, yellow; [13]) | Plant response rating, Barnyardgrass (barnyardgrass [5]; [11])
0: Plant response rating, Pigweed (pigweed; [6]) | Plant response rating, Corn (corn [2]; 125 g ai/ha, visual rating on 0 to 100 scale (0 no effect, 100 complete control), approx. 10 days) | Plant response rating, Rice (rice) | Plant response rating, Corn (corn [4]; [10]) | Plant response rating, Corn (corn [4]; [11]) | Plant response rating, Corn (corn [4]; [12]) | Plant response rating, Corn (corn [4]; [13]) | Corn plant response rating (corn [4]; [14]) | Corn plant response rating (corn [4]; [15]) | Plant response rating, Corn (corn [4]; [16]) | Plant response rating, Foxtail, Giant (foxtail, giant; [10]) | Plant response rating, Nutsedge, Yellow (nutsedge, yellow; [10]) | Plant response rating, Nutsedge, Yellow (nutsedge, yellow; [11]) | Plant response rating, Nutsedge, Yellow (nutsedge, yellow; [12]) | Nutsedge, Yellow plant response rating (nutsedge, yellow; [14]) | Nutsedge, Yellow plant response rating (nutsedge, yellow; [15]) | Plant response rating, Nutsedge, Yellow (nutsedge, yellow; [16]) | Plant response rating, Soybean (soybean; [10]) | Plant response rating, Soybean (soybean; [11]) | Plant response rating, Soybean (soybean; [12]) | Soybean plant response rating (soybean; [14]) | Plant response rating, Soybean (soybean; [16]) | Plant response rating (scale of 0 to 100), Soybean (soybean; Preemergence, 250 g ai/ha) | Plant response rating, Barnyardgrass (barnyardgrass [5]; [10]) | Plant response rating, Oilseed Rape (oilseed rape; [10]) | Plant response rating, Oilseed Rape (oilseed rape; [11]) | Plant response rating, Oilseed Rape (oilseed rape; [13]) | Oilseed Rape plant response rating (oilseed rape; [14]) | Oilseed Rape plant response rating (oilseed rape; [15]) | Plant response rating, Oilseed Rape (oilseed rape; [16])
40: Plant response rating, Corn (corn [2]; 500 g ai/ha, 0 to 100 scale (0 no effect, 100 complete control)) | Plant response rating, Barnyardgrass (barnyardgrass [5]; [12]) | Plant response rating, Oilseed Rape (oilseed rape; [12])
45: Plant response rating, Foxtail, Giant (foxtail, giant; [11])
90: Plant response rating, Barnyardgrass (barnyardgrass [1]; [6]) | Plant response rating, Barnyardgrass (barnyardgrass [1]; [7]) | Plant response rating, Barnyardgrass (barnyardgrass [1]; [8]) | Barnyardgrass plant response rating (barnyardgrass [1]; [9]) | Foxtail, Giant plant response rating (foxtail, giant; [14]) | Plant response rating, Barnyardgrass (barnyardgrass [5]; [13]) | Barnyardgrass plant response rating (barnyardgrass [5]; [14])
85: Barnyardgrass plant response rating (barnyardgrass [5]; [15])
65: Plant response rating, Soybean (soybean; [13])
95: Foxtail, Giant plant response rating (foxtail, giant; [15])
30: Soybean plant response rating (soybean; [15])
98: Plant response rating, Ducksalad (ducksalad)
